{"source": "patent US7605163B2", "about": "“Benzoyl-piperazine derivatives” (Hoffmann-La Roche Inc., priority 2003, dated 2009)"}
{"molecular_target": "T1, mGlyT-1b (Mus musculus, UniProt P28571)", "T1 construct": "host or cells: Flp-in-CHO cells", "T1 sequence (P28571 1-651 isoform P28571-2)": "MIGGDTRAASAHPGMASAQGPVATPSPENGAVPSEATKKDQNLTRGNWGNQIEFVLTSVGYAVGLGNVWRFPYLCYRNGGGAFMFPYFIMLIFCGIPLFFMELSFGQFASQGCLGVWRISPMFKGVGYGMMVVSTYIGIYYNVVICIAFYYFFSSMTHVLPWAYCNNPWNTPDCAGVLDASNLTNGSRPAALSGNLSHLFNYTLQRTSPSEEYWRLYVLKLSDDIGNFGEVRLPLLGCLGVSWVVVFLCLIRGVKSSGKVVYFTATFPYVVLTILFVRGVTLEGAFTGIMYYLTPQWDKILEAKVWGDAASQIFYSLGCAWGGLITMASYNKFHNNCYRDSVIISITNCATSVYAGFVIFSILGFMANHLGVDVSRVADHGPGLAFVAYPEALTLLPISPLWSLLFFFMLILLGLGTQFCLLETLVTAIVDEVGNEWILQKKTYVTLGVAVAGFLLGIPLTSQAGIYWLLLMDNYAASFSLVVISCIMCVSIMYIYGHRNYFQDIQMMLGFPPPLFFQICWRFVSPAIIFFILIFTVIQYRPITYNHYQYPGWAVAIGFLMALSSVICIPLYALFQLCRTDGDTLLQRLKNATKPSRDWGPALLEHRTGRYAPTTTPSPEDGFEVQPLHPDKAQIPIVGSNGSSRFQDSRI", "assay": "Glycine Uptake Inhibition Assay (mGlyT-1b)", "format": "cell-based", "settings": "[3H]-glycine uptake inhibition at GlyT-1, Flp-in-CHO cells transfected with mGlyT-1b cDNA", "method_in_brief": "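Flp-in CHO cells stably expressing mouse GlyT-1b preincubated 20 min at 22 °C with inhibitor in pH 7.4 uptake buffer, then given 60 nM [3H]-glycine plus 25 μM unlabelled glycine. Cell radioactivity counted by scintillation; nonspecific uptake defined with 10 mM glycine; IC50 from concentration range.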", "units": {"IC50": "nM"}}
{"molecule": "CC(C)Oc1ccc(S(C)(=O)=O)cc1C(=O)N1CCN(c2ccc(C=O)cc2F)CC1", "note": "[compound 461]", "IC50": 46}
{"molecule": "CNS(=O)(=O)c1ccc(OCC(C)C)c(C(=O)N2CCN(c3ccc(C#N)c(F)c3)CC2)c1", "note": "[compound 475]", "IC50": 40}
{"molecule": "CNS(=O)(=O)c1ccc(OCC2CCC2)c(C(=O)N2CCN(c3ccc(C#N)c(F)c3)CC2)c1", "note": "[compound 481]", "IC50": 30}
{"molecule": "CNS(=O)(=O)c1ccc(OCC(C)C)c(C(=O)N2CCN(c3ccc(C#N)cc3)CC2)c1", "note": "[compound 488]", "IC50": 39}
{"molecule": "CNS(=O)(=O)c1ccc(OC2CCCC2)c(C(=O)N2CCN(c3ccc(C#N)cc3)CC2)c1", "note": "[compound 491]", "IC50": 37}
{"molecule": "CNS(=O)(=O)c1ccc(OCC2CCC2)c(C(=O)N2CCN(c3ccc(C#N)cc3)CC2)c1", "note": "[compound 494]", "IC50": 30}
{"molecule": "CNS(=O)(=O)c1ccc(OCC(C)C)c(C(=O)N2CCN(c3ccc(C#N)cc3F)CC2)c1", "note": "[compound 504]", "IC50": 25}
{"molecule": "CNS(=O)(=O)c1ccc(OCC(C)(C)C)c(C(=O)N2CCN(c3ccc(C#N)cc3F)CC2)c1", "note": "[compound 505]", "IC50": 24}
{"molecule": "CNS(=O)(=O)c1ccc(OC(C)C)c(C(=O)N2CCN(c3ccc(C#N)cc3F)CC2)c1", "note": "[compound 506]", "IC50": 46}
{"molecule": "CNS(=O)(=O)c1ccc(OC2CCCC2)c(C(=O)N2CCN(c3ccc(C#N)cc3F)CC2)c1", "note": "[compound 507]", "IC50": 31}
{"molecule": "CNS(=O)(=O)c1ccc(OCC2CC2)c(C(=O)N2CCN(c3ccc(C#N)cc3F)CC2)c1", "note": "[compound 509]", "IC50": 30}
{"molecule": "CNS(=O)(=O)c1ccc(OCC2CCC2)c(C(=O)N2CCN(c3ccc(C#N)cc3F)CC2)c1", "note": "[compound 510]", "IC50": 15}
{"molecule": "CNS(=O)(=O)c1ccc(OCC(C)C)c(C(=O)N2CCN(c3ccc(C(C)=O)cc3F)CC2)c1", "note": "[compound 514]", "IC50": 45}
{"molecule": "CNS(=O)(=O)c1ccc(OCC(C)(C)C)c(C(=O)N2CCN(c3ccc(C(C)=O)cc3F)CC2)c1", "note": "[compound 515]", "IC50": 40}
{"molecule": "CNS(=O)(=O)c1ccc(OC2CCCC2)c(C(=O)N2CCN(c3ccc(C(C)=O)cc3F)CC2)c1", "note": "[compound 517]", "IC50": 35}
{"molecule": "CNS(=O)(=O)c1ccc(OCC2CC2)c(C(=O)N2CCN(c3ccc(C(C)=O)cc3F)CC2)c1", "note": "[compound 519]", "IC50": 35}
{"molecule": "CNS(=O)(=O)c1ccc(OCC(C)C)c(C(=O)N2CCN(c3ccc(C(F)(F)F)cc3)CC2)c1", "note": "[compound 524]", "IC50": 12}
{"molecule": "CNS(=O)(=O)c1ccc(OCC(C)(C)C)c(C(=O)N2CCN(c3ccc(C(F)(F)F)cc3)CC2)c1", "note": "[compound 525]", "IC50": 21}
{"molecule": "CNS(=O)(=O)c1ccc(OC(C)C)c(C(=O)N2CCN(c3ccc(C(F)(F)F)cc3)CC2)c1", "note": "[compound 526]", "IC50": 9}
{"molecule": "CNS(=O)(=O)c1ccc(OC2CCCC2)c(C(=O)N2CCN(c3ccc(C(F)(F)F)cc3)CC2)c1", "note": "[compound 527]", "IC50": 6}
{"molecule": "CNS(=O)(=O)c1ccc(OC2CCC2)c(C(=O)N2CCN(c3ccc(C(F)(F)F)cc3)CC2)c1", "note": "[compound 528]", "IC50": 15}
{"molecule": "CNS(=O)(=O)c1ccc(OCC2CC2)c(C(=O)N2CCN(c3ccc(C(F)(F)F)cc3)CC2)c1", "note": "[compound 529]", "IC50": 13}
{"molecule": "CNS(=O)(=O)c1ccc(OCC2CCC2)c(C(=O)N2CCN(c3ccc(C(F)(F)F)cc3)CC2)c1", "note": "[compound 530]", "IC50": 5.7}
{"molecule": "CNS(=O)(=O)c1ccc(OCCC(F)(F)F)c(C(=O)N2CCN(c3ccc(C(F)(F)F)cc3)CC2)c1", "note": "[compound 531]", "IC50": 28}
{"molecule": "CNS(=O)(=O)c1ccc(OCC(F)(F)F)c(C(=O)N2CCN(c3ccc(C#N)cc3F)CC2)c1", "note": "[compound 534]", "IC50": 49}
{"molecule": "CNS(=O)(=O)c1ccc(OCC(F)(F)F)c(C(=O)N2CCN(c3ccc(C(F)(F)F)cc3)CC2)c1", "note": "[compound 537]", "IC50": 30}
{"molecule": "N#Cc1ccc(N2CCN(C(=O)c3cc(S(=O)(=O)C4CC4)ccc3OC3CCCC3)CC2)c(F)c1", "note": "[compound 546]", "IC50": 35}
{"molecule": "COCCS(=O)(=O)c1ccc(N2CCN(C(=O)c3cc(S(C)(=O)=O)ccc3OC(C)C)CC2)c(F)c1", "note": "[compound 561]", "IC50": 38}
{"molecule": "CCS(=O)(=O)c1ccc(N2CCN(C(=O)c3cc(S(C)(=O)=O)ccc3OCC3CC3)CC2)c(F)c1", "note": "[compound 562]", "IC50": 44}
{"molecule": "CCS(=O)(=O)c1ccc(N2CCN(C(=O)c3cc(S(C)(=O)=O)ccc3OC3CCCC3)CC2)c(F)c1", "note": "[compound 563]", "IC50": 43}
{"molecule": "CCS(=O)(=O)c1ccc(N2CCN(C(=O)c3cc(S(C)(=O)=O)ccc3OC3CCCCC3)CC2)c(F)c1", "note": "[compound 564]", "IC50": 41}
{"molecule": "CCS(=O)(=O)c1ccc(N2CCN(C(=O)c3cc(S(C)(=O)=O)ccc3OCC(C)C)CC2)c(F)c1", "note": "[compound 566]", "IC50": 30}
{"molecule": "CC(C)Oc1ccc(S(C)(=O)=O)cc1C(=O)N1CCN(c2ccc(S(=O)(=O)C3CCC3)cc2F)CC1", "note": "[compound 570]", "IC50": 46}
{"molecule": "CC(C)Oc1ccc(S(C)(=O)=O)cc1C(=O)N1CCN(c2ccc(S(=O)(=O)C3CCCC3)cc2F)CC1", "note": "[compound 571]", "IC50": 50}
{"molecule": "CS(=O)(=O)c1ccc(OC2CCCC2)c(C(=O)N2CCN(c3ccc(S(=O)(=O)C4CC4)cc3F)CC2)c1", "note": "[compound 573]", "IC50": 37}
{"molecule": "CS(=O)(=O)c1ccc(OC2CCCCC2)c(C(=O)N2CCN(c3ccc(S(=O)(=O)C4CC4)cc3F)CC2)c1", "note": "[compound 574]", "IC50": 34}
{"molecule": "CS(=O)(=O)c1ccc(OC2CCC2)c(C(=O)N2CCN(c3ccc(S(=O)(=O)C4CC4)cc3F)CC2)c1", "note": "[compound 576]", "IC50": 39}
{"molecule": "CC(C)COc1ccc(S(C)(=O)=O)cc1C(=O)N1CCN(c2ccc(S(=O)(=O)C3CC3)cc2F)CC1", "note": "[compound 578]", "IC50": 41}
{"molecule": "CC(C)Oc1ccc(S(C)(=O)=O)cc1C(=O)N1CCN(c2ccc(S(=O)(=O)C3CCCCC3)cc2F)CC1", "note": "[compound 589]", "IC50": 32}
{"molecule": "CC(C)Oc1ccc(S(C)(=O)=O)cc1C(=O)N1CCN(c2cc(F)c(S(=O)(=O)C3CC3)cc2F)CC1", "note": "[compound 595]", "IC50": 49}
{"molecule": "CC(C)(Oc1ccc(S(C)(=O)=O)cc1C(=O)N1CCN(c2ncc(C(F)(F)F)cc2F)CC1)C(F)(F)F", "note": "[compound 637]", "IC50": 47}
